PMC10334278 (Journal of Pharmaceutical Analysis, 2023)

Target: T1, Recombinant human GSS (Homo sapiens, UniProt P48637)
T1 sequence (P48637 2-474): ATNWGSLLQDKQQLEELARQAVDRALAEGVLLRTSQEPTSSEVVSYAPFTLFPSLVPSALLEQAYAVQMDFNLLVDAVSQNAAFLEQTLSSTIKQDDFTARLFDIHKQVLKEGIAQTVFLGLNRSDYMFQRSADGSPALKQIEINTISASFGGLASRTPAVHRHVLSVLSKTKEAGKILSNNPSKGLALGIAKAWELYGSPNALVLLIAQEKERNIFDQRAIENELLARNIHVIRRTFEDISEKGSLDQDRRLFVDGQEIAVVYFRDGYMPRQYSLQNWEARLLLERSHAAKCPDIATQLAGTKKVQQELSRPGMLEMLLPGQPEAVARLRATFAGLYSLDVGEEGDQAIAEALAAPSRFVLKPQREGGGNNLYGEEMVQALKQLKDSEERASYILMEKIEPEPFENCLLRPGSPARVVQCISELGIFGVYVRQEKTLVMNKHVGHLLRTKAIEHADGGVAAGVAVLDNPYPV
Test: isothermal titration calorimetry
Type: binding

N[C@@H](CCC(=O)N[C@@H](CS)C(=O)O)C(=O)O [γ-glutamylcysteine]
Kd: 1.09 µM
